Test results from patent US20230339981A1, “KRAS G12D MODULATING COMPOUNDS” (priority 2022, published 2023).
pEC50, pIC50: −log10 of the molar value.

Columns and labels:
GDP-loaded KRAS G12D = GDP-loaded KRAS G12D (Homo sapiens (Human), UniProt P01116, G12D); assay: KRAS G12D (GDP) biochemical assay (TR-FRET probe displacement); type: binding; conditions: 2 hours
In short: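 Compound pre-incubated 30 min with GDP-loaded KRAS G12D in 50 mM Hepes pH 7.4, 150 mM NaCl, 5 mM MgCl2, 0.005% Tween-20, then Eu-streptavidin and TR-FRET probe added. After 2 h at room temperature, TR-FRET ratio read; IC50 is 50% ratio decrease, sigmoidal fit.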

GP2D (KRAS G12D) cells = assay: 2D cell viability assay (CellTiter-Glo); type: cell-based; conditions: GP2d, 96 h, 4 days
In short: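 GP2D (KRAS G12D) cells, 1000/well in RPMI + 10% FBS, were plated onto compound (1:3 DMSO series) and grown 4 days at 37 °C, 5% CO2 in 2D. CellTiter-Glo luminescence was read; EC50 is the concentration giving 50% signal decrease, from sigmoidal fit.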

Sequence of GDP-loaded KRAS G12D (P01116-2 other isoform, or with tags, fused parts or gaps G12D): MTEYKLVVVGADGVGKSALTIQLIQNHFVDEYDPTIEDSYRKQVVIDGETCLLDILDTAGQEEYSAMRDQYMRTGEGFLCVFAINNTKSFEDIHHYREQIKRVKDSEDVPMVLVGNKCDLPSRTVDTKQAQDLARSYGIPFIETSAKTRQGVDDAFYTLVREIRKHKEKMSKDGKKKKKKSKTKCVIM

Structure (SMILES) | pIC50 (GDP-loaded KRAS G12D) | pEC50 (GP2D (KRAS G12D) cells)
Oc1cc(-c2nc3c4c(nc(OC[C@@]56CCCN5C[C@H](F)C6)nc4c2F)N2C[C@H]4CC[C@H](N4)[C@H]2CC3)c2c(OC3CC3)c(F)ccc2c1 [Example 37, 5-cyclopropoxy-6-fluoro-4-((5aR,6S,9R)-1-fluoro-12-(((2R,7aS)-2-fluorotetrahydro-1H-pyrrolizin-7a(5H)-yl)methoxy)-4,5,5a,6,7,8,9,10-octahydro-3,10a,11,13,14-pentaaza-6,9-methanonaphtho[1,8-ab]heptalen-2-yl)naphthalen-2-ol] | 9.00 | 8.05
C#Cc1c(F)ccc2cccc(-c3nc4c5c(nc(OC[C@]67CCCN6C[C@@H](OC(F)(F)F)C7)nc5c3F)N3C[C@H]5CC[C@H](N5)[C@H]3CC4)c12 (stereo in doubt) [Example 142, (5aR,6S,9R)-2-(8-ethynyl-7-fluoronaphthalen-1-yl)-1-fluoro-12-((trans-2-(trifluoromethoxy)tetrahydro-1H-pyrrolizin-7a(5H)-yl)methoxy)-4,5,5a,6,7,8,9,10-octahydro-3,10a,11,13,14-pentaaza-6,9-methanonaphtho[1,8-ab]heptalene] | 8.44 | 7.02
C#Cc1c(F)ccc2cccc(-c3nc4c5c(nc(OC[C@@]67CCCN6[C@H](COC(C(F)(F)F)(C(F)(F)F)C(F)(F)F)CC7)nc5c3F)N3C[C@H]5CC[C@H](N5)[C@H]3CC4)c12 [Example 187, (5aR,6S,9R)-2-(8-ethynyl-7-fluoronaphthalen-1-yl)-1-fluoro-12-(((3S,7aS)-3-(((1,1,1,3,3,3-hexafluoro-2-(trifluoromethyl)propan-2-yl)oxy)methyl)tetrahydro-1H-pyrrolizin-7a(5H)-yl)methoxy)-4,5,5a,6,7,8,9,10-octahydro-3,10a,11,13,14-pentaaza-6,9-methanonaphtho[1,8-ab]heptalene] | 9.05 | 7.21
C#Cc1c(F)ccc2cc(O)cc(-c3nc4c5c(nc(OCC6(CN7CC[C@H](OC(F)(F)F)C7)CC6)nc5c3F)N3C[C@H]5CC[C@H](N5)[C@H]3CCC4)c12 [Example 162] | 9.40 | 9.30
CCc1c(F)ccc2cccc(-c3nc4c5c(nc(OC[C@@]67CCCN6C[C@H](F)C7)nc5c3F)N3C[C@H]5CC[C@H](N5)[C@@H]3[C@@H](C)C4)c12 [Example 131, (5S,5aS,6S,9R)-2-(8-ethyl-7-fluoronaphthalen-1-yl)-1-fluoro-12-(((2R,7aS)-2-fluorotetrahydro-1H-pyrrolizin-7a(5H)-yl)methoxy)-5-methyl-4,5,5a,6,7,8,9,10-octahydro-3,10a,11,13,14-pentaaza-6,9-methanonaphtho[1,8-ab]heptalene] | 7.26 | 7.00
Fc1c(-c2cccc3ccccc23)nc2c3c(nc(OC[C@@]45CCCN4C[C@H](F)C5)nc13)N1C[C@H]3CC[C@H](N3)[C@H]1CO2 [Example 46, (5aS,6S,9R)-1-fluoro-12-(((2R,7aS)-2-fluorotetrahydro-1H-pyrrolizin-7a(5H)-yl)methoxy)-2-(naphthalen-1-yl)-5a,6,7,8,9,10-hexahydro-5H-4-oxa-3,10a,11,13,14-pentaaza-6,9-methanonaphtho[1,8-ab]heptalene] | 6.04 | < 6.00
C#Cc1c(F)ccc2cccc(-c3nc4c5c(nc(OC[C@@]67CCCN6[C@H](COc6ccnc(C(F)(F)F)n6)CC7)nc5c3F)N3C[C@H]5CC[C@H](N5)[C@H]3CC4)c12 [Example 151, (5aR,6S,9R)-2-(8-ethynyl-7-fluoronaphthalen-1-yl)-1-fluoro-12-(((3S,7aS)-3-(((2-(trifluoromethyl)pyrimidin-4-yl)oxy)methyl)tetrahydro-1H-pyrrolizin-7a(5H)-yl)methoxy)-4,5,5a,6,7,8,9,10-octahydro-3,10a,11,13,14-pentaaza-6,9-methanonaphtho[1,8-ab]heptalene] | 10.00 | 8.30
C#Cc1c(F)ccc2cc(O)cc(-c3nc4c5c(nc(OC[C@]67CCCN6C[C@H](OC(C(F)(F)F)(C(F)(F)F)C(F)(F)F)C7)nc5c3F)N3C[C@H]5CC[C@H](N5)[C@H]3CC4)c12 [Example 144, 5-ethynyl-6-fluoro-4-((5aR,6S,9R)-1-fluoro-12-((cis-2-((1,1,1,3,3,3-hexafluoro-2-(trifluoromethyl)propan-2-yl)oxy)tetrahydro-1H-pyrrolizin-7a(5H)-yl)methoxy)-4,5,5a,6,7,8,9,10-octahydro-3,10a,11,13,14-pentaaza-6,9-methanonaphtho[1,8-ab]heptalen-2-yl)naphthalen-2-ol] | 7.08 | 7.00
C#Cc1c(F)c(F)cc2cccc(-c3nc4c5c(nc(OC[C@@]67CCCN6C[C@H](F)C7)nc5c3F)N3C[C@H]5CC[C@H](N5)[C@H]3CO4)c12 [Example 62, (5aS,6S,9R)-2-(8-ethynyl-6,7-difluoronaphthalen-1-yl)-1-fluoro-12-(((2R,7aS)-2-fluorotetrahydro-1H-pyrrolizin-7a(5H)-yl)methoxy)-5a,6,7,8,9,10-hexahydro-5H-4-oxa-3,10a,11,13,14-pentaaza-6,9-methanonaphtho[1,8-ab]heptalene] | 8.15 | 7.10
Oc1cc(-c2nc3c4c(nc(OC[C@@]56CCCN5C[C@H](F)C6)nc4c2F)N2C[C@H]4CC[C@H](N4)[C@H]2CO3)c2c(F)c(F)c(F)cc2c1 [Example 11, 5,6,7-trifluoro-4-((5aS,6S,9R)-1-fluoro-12-(((2R,7aS)-2-fluorotetrahydro-1H-pyrrolizin-7a(5H)-yl)methoxy)-5a,6,7,8,9,10-hexahydro-5H-4-oxa-3,10a,11,13,14-pentaaza-6,9-methanonaphtho[1,8-ab]heptalen-2-yl)naphthalen-2-ol] | 9.00 | 7.25
C#Cc1c(F)ccc2cccc(-c3nc4c5c(nc(OCC67CC8(CC8)CN6CC6(CC6)C7)nc5c3F)N3C[C@H]5CC[C@H](N5)[C@@H]3[C@@H](C)C4)c12 [Example 158] | 7.90 | 7.00
C#Cc1c(F)ccc2cc(O)cc(-c3nc4c5c(nc(OCC6(CN7CCC[C@H](F)C7)CC6)nc5c3F)N3C[C@H]5CC[C@H](N5)[C@H]3CO4)c12 [Example 33, 5-ethynyl-6-fluoro-4-((5aS,6S,9R)-1-fluoro-12-((1-(((S)-3-fluoropiperidin-1-yl)methyl)cyclopropyl)methoxy)-5a,6,7,8,9,10-hexahydro-5H-4-oxa-3,10a,11,13,14-pentaaza-6,9-methanonaphtho[1,8-ab]heptalen-2-yl)naphthalen-2-ol] | 9.52 | 8.52
C#Cc1c(F)ccc2cccc(-c3nc4c5c(nc(OCC6(CN7CCC8(CC7)CC8(F)F)CC6)nc5c3F)N3C[C@H]5CC[C@H](N5)[C@@H]3[C@@H](C)C4)c12 [Example 136, (5S,5aS,6S,9R)-12-((1-((1,1-difluoro-6-azaspiro[2.5]octan-6-yl)methyl)cyclopropyl)methoxy)-2-(8-ethynyl-7-fluoronaphthalen-1-yl)-1-fluoro-5-methyl-4,5,5a,6,7,8,9,10-octahydro-3,10a,11,13,14-pentaaza-6,9-methanonaphtho[1,8-ab]heptalene] | 7.77 | 7.00
